Assay results published in PMC7006505, “Chemical biology tools for probing transcytosis at the blood–brain barrier” (Chemical Science, 2019).
Bridge positions count the residues as written; N and C are the ends. Square brackets hold non-standard residues; d marks the D form. Triazole bridges read from a SMILES are 1,4-linked. Ends that are not written are not given here. I, II: the chains in the order shown. * marks the point of attachment. 5FAM = O=C1OC2(c3ccc(O)cc3Oc3cc(O)ccc32)c2ccc(C(=O)*)cc21; Lys(N3) = [N-]=[N+]=NCCCC[C@H](N)C(=O)O; Pra = C#CC[C@H](N)C(=O)O

Test system: bEnd.3/MSC co-culture
Assay: Transcytosis assay, transwell in vitro BBB model with dex-TexR correction (cPapp)
Type: in vitro ADME, mouse
Conditions: apical to basolateral; for fold increase in permeability (cPapp) relative to Tf-A647: bEnd.3/MSC co-culture on polyester transwell inserts (0.4 µm pore), 0.5 µM vehicle with 5 µM dex-TexR (3000 Da), DMEM without FCS after 1 h serum starvation, three inserts with and without culture, paracellular contribution subtracted
Source text: To study transcytosis potential of the vehicles in vitro we optimised a BBB model using a 3D-transwell format. […] This is similar to results shown by others.[16] Immunostaining for TJ protein ZO-1 in the bEnd.3 cell line confirmed its presence and trafficking towards the cell junctions (Fig. S7 ^†).
It seemed plausible that a similar sized marker (such as TexasRed labelled dextran (dex-TexR; 3000 g mol^–1)) that is incapable of AMT or RMT uptake could serve as an internal standard to quantify paracellular contribution of the vehicles. As exemplified in Fig. 4A, experiments are performed in parallel with probes (both dex-TexR and FAM-PPII vehicle or Tf-A647) fed to insets containing either the cell monolayer (PSt) or filter alone (PSf). The corresponding Papp for dex-TexR in both scenarios is first calculated and the extent in which movement is reduced by presence of the monolayer (defined here as the transport ratio (TR)) is used to determine the expected paracellular diffusion rate of the individual vehicles. We employed Tf-A647 and a similarly sized TexasRed labelled dextran (dex-TexR; 70 000 g mol^–1) as a positive control for transcytosis. […] When incubated in the presence of cells, dex-TexR was detected in the basolateral compartment indicating background paracellular flux. However, Tf-A647 was cleared at a faster rate in comparison, confirming transcytosis of the molecule.
Fig. 4 Modified workflow and results for determining the cPapp of a macromolecule, accounting for contributions made by paracellular diffusion across an in vitro barrier. […] (B–C) Clearance plots obtained by incubation of Tf-A647 or dex-TexR with filters alone (B; PSf) or with cells (C; PSt). […] Division of PSt/PSf for dextran generates the transport ratio (TR). Expected paracellular contribution of the vehicle is obtained by multiplying TR by the Papp of the compound of interest without cells. cPapp values are obtained by subtracting this value from Papp of compound with cells. Key: red = dex-TexR; blue = Tf-A647; dashed lines = filter insert only; solid lines = transwell culture (D) cPapp values for delivery vehicles screened in the transcytosis assay.
(3 × 1 mL), and trypsinisation was conducted using a solution of 0.25 % (w/v) trypsin-EDTA solution (0.5 mL, 3 min, 37 °C, 5 % CO2 incubation), unless otherwise specified. When required, a Scan Speed 1580R centrifuge (Labmode) was used to pellet cell suspensions. All tissue culture work was performed in sterilised Corning well plates, and cell based assays used DMEM media (ThermoFisher, #31053028) without FCS and phenol red, unless otherwise specified. bEND.3 cells were a gift from Rachael Brown (Kings College London), while MSC cells were a gift from the Battaglia group (University College London).
Cells were maintained in high glucose Dulbecco’s Modified Eagle’s Medium (DMEM) (ATCC #30-2002) supplemented with 10 % FCS. Cells were sub-cultured routinely using trypsin solution once 100 % confluence was achieved. For uptake and transcytosis studies, cells under passage number 30 were used. After this time, these cells may begin to lose their barr ier functionality, as identified from an extensive study performed by Brown et al.1 Mesenchymal stem cells (MSC)
MSC, as surrogates for pericytes, were maintained in DMEM/F12 medium containing GlutaMAX and L-glutamine (2 mM) (ThermoFisher, #10565-018), supplemented with 10 % FCS and 5 μg/mL Gentamicin (SIGMA, G1397). Cultures were sub -cultured routinely using trypsin solution once 70 -80 % confluence was achieved.
For all transcytosis assays, polyester filter inserts (Corning, #3460; 0.4 µm pore, 12 mm diameter, 10 µm thick) were used in 12-well cell culture plates. Optimum media volumes were calculated to be 950 µL and 475 µL for apical and basolateral chambers respectively. Both chambers were coated with rat tail collagen (5 µg/cm2) for 2 h at room temperature prior to use. bEND.3 cells were seeded at a density of 2 × 10^4 cells/well onto insets, and grown to […]

| Compound | fold increase in permeability (cPapp) relative to Tf-A647 (37 °C, fluorescence read-out) | further results |
| --- | --- | --- |
| CC[C@H](C)[C@H](NC(=O)[C@H](C)NC(=O)[C@@H](N)Cc1c[nH]cn1)C(=O)N[C@@H](Cc1ccc(O)cc1)C(=O)N1CCC[C@H]1C(=O)N[C@@H](CCCNC(=N)N)C(=O)N[C@@H](Cc1c[nH]cn1)C(=O)NCCCC[C@H](NC(=O)[C@H](CCCNC(=N)N)NC(=O)[C@@H](NC(=O)[C@@H]1CCCN1C(=O)[C@@H]1CCCN1C(=O)[C@@H]1CCCN1C(=O)[C@H](CC(C)C)NC(=O)[C@H](CCCNC(=N)N)NC(=O)[C@@H](NC(=O)[C@@H]1CCCN1C(=O)[C@@H]1CCCN1C(=O)[C@@H]1CCCN1C(=O)[C@H](Cc1cn(CCCC[C@H](N)C(=O)N[C@H](C(=O)N[C@@H](Cc2ccccc2)C(=O)N[C@@H](Cc2ccccc2)C(=O)N[C@@H](Cc2ccc(O)cc2)C(=O)NCC(=O)NCC(=O)N[C@@H](CO)C(=O)N[C@@H](CCCNC(=N)N)C(=O)NCC(=O)N[C@@H](CCCCN)C(=O)N[C@@H](CCCNC(=N)N)C(=O)N[C@@H](CC(N)=O)C(=O)N[C@@H](CC(N)=O)C(=O)N[C@@H](Cc2ccccc2)C(=O)N[C@@H](CCCCN)C(=O)N[C@H](C(=O)N[C@@H](CCC(=O)O)C(=O)N[C@@H](CCC(=O)O)C(=O)N[C@@H](Cc2ccc(O)cc2)C(N)=O)[C@@H](C)O)[C@@H](C)O)nn1)NC(=O)[C@H](CCCNC(=N)N)NC(=O)[C@@H](NC(=O)c1ccc2c(c1)C(=O)OC21c2ccc(O)cc2Oc2cc(O)ccc21)C(C)C)C(C)C)C(C)C)C(=O)N1CCC[C@H]1C(=O)N1CCC[C@H]1C(=O)N1CCC[C@H]1C(N)=O [PPII(L3X;L15K)TfRL2(K);APep2(X)] | 1.8 fold |  |
| CC(C)C[C@H](NC(=O)[C@H](CCCNC(=N)N)NC(=O)[C@@H](NC(=O)[C@@H]1CCCN1C(=O)[C@@H]1CCCN1C(=O)[C@@H]1CCCN1C(=O)[C@H](Cc1cn(CCCC[C@H](N)C(=O)N[C@H](C(=O)N[C@@H](Cc2ccccc2)C(=O)N[C@@H](Cc2ccccc2)C(=O)N[C@@H](Cc2ccc(O)cc2)C(=O)NCC(=O)NCC(=O)N[C@@H](CO)C(=O)N[C@@H](CCCNC(=N)N)C(=O)NCC(=O)N[C@@H](CCCCN)C(=O)N[C@@H](CCCNC(=N)N)C(=O)N[C@@H](CC(N)=O)C(=O)N[C@@H](CC(N)=O)C(=O)N[C@@H](Cc2ccccc2)C(=O)N[C@@H](CCCCN)C(=O)N[C@H](C(=O)N[C@@H](CCC(=O)O)C(=O)N[C@@H](CCC(=O)O)C(=O)N[C@@H](Cc2ccc(O)cc2)C(N)=O)[C@@H](C)O)[C@@H](C)O)nn1)NC(=O)[C@H](CCCNC(=N)N)NC(=O)[C@@H](NC(=O)c1ccc2c(c1)C(=O)OC21c2ccc(O)cc2Oc2cc(O)ccc21)C(C)C)C(C)C)C(=O)N1CCC[C@H]1C(=O)N1CCC[C@H]1C(=O)N1CCC[C@H]1C(=O)N[C@H](C(=O)N[C@@H](CCCNC(=N)N)C(=O)N[C@@H](Cc1cn(CCCC[C@H](N)C(=O)N[C@H](C(=O)N[C@@H](Cc2ccccc2)C(=O)N[C@@H](Cc2ccccc2)C(=O)N[C@@H](Cc2ccc(O)cc2)C(=O)NCC(=O)NCC(=O)N[C@@H](CO)C(=O)N[C@@H](CCCNC(=N)N)C(=O)NCC(=O)N[C@@H](CCCCN)C(=O)N[C@@H](CCCNC(=N)N)C(=O)N[C@@H](CC(N)=O)C(=O)N[C@@H](CC(N)=O)C(=O)N[C@@H](Cc2ccccc2)C(=O)N[C@@H](CCCCN)C(=O)N[C@H](C(=O)N[C@@H](CCC(=O)O)C(=O)N[C@@H](CCC(=O)O)C(=O)N[C@@H](Cc2ccc(O)cc2)C(N)=O)[C@@H](C)O)[C@@H](C)O)nn1)C(=O)N1CCC[C@H]1C(=O)N1CCC[C@H]1C(=O)N1CCC[C@H]1C(N)=O)C(C)C [PPII(L3X;L15X)APep2] |  | transcytosis / permeability in BBB model, in words (bEnd.3/MSC transwell, 0.5 µM vehicle, 37 °C, cPapp): limited transcytosis |
| Tf-A647: human derived AlexaFluor 647-conjugated transferrin [reference compound] |  | cPapp at 4 °C (bEnd.3/MSC transwell, 4 °C, FAM-labelled vehicle co-incubated with dex-TexR, fluorescence read-out, corrected for paracellular diffusion): 0.09 cm/min x 10^-5 |
| I: 5FAM-VR[Pra]PPPVRLPPP[Pra]RLPPP-NH2 / II: [Lys(N3)]THRPPMWSPVWP-NH2 / III: [Lys(N3)]THRPPMWSPVWP-NH2 (triazole I:3-III:1, I:13-II:1) [PPII(L3X;V13X)TfRL1] | 3.5 fold |  |
